Measured values taken from PubChem BioAssay AID2060510 (Molecular Pharmacology Branch, DTP, NCI, 2025).

Tested on: 439559-082-T-J2-PDC spheroids viability
Test: Anticancer human tumor 439559-082-T-J2-PDC patient-derived colon adenocarcinoma cell line growth inhibition [GQUAD]
Conditions: for IC50: curve of first compound; for viability, T/C: stronger effect = lower value; active = viability on the fitted dose curve at most 10% of control; inactive = the rest
Excerpt: DNA G-quadruplex Stabilizer Agents in Combinations in Complex Spheroids
A high-throughput screen of multi-cell type tumor spheroids was designed to identify active combinations of DNA G-quadruplex stabilizer agents and targeted small molecules. Complex spheroids include a stromal component modeled by human endothelial cells (HUVEC) and fibroblasts modeled by human mesenchymal stem cells (MSCs). The concentration ranges selected for each drug and investigational agent were based upon clinically achievable concentrations if the clinical Cmax of the agent was known.
Compounds. The drugs and investigational agents: pidnarulex (CX-5461; NSC782164), APTO-253 (NSC789042), BRACO-19 (NSC847499), peposertib (NSC802822), ceralasertib (NSC780249), elimusertib (NSC800525), camonsertib (NSC841442), AZD-1390 (NSC803789), olaparib (NSC753686), talazoparib (NSC767125), ART-558 (NSC835418), sotorasib (NSC818433), MRTX-1133 (NSC836407), SN-38 (NSC673596), topotecan (NSC609699), etoposide (NSC141540), doxorubicin (NSC123127), gemcitabine (NSC613327), 5-fluorouracil (NSC19893), paclitaxel (NSC125973), vemurafenib (NSC761431), panobinostat (NSC761190), R-306465 (JNJ-16241199; NSC773264), adavosertib (NSC754352), TP-3654 (NSC805149), carboplatin (NSC241240), KSQ-4279 (NSC840948), and staurosporine (NSC755774) were obtained from the National Cancer Institute (NCI) Developmental Therapeutics Program Chemical Repository (34). The FDA-approved anticancer drug set is available from the NCI Developmental Therapeutics Program. […] The stock solutions were prepared in dimethyl sulfoxide (DMSO, Sigma-Aldrich, St. Louis, MO, cat. D2650) at 800-fold the tested concentration and stored at -70 degrees C prior to their use. All drugs and investigational agents were tested over a range starting from a high concentration at or near the clinical Cmax and decreasing in half-log increments. If the clinical Cmax for an agent had not been determined, the highest concentration tested was 10 microM.
2.3 Cell Culture. All cells were maintained in an incubator at 37 degrees C and 5% CO2 with 95% humidity. The PDC lines were cultured according to standard operating procedures established by the NCI PDMR. All PDCs were thawed and cultured in Matrigel-coated flasks prepared with a working solution of 1X Ham's F-12 nutrient mix, without supplementation (Invitrogen, cat. 11765054), 100 U/mL penicillin-streptomycin (Invitrogen, cat. 15140122), and 2.5% Matrigel (Corning Inc., cat. 354248) for the first three passages. The 857933-349-R-J2-PDC line was cultured in 6C/Colon 1B media, which includes advanced DMEM/F-12 (Thermo Fisher Scientific, cat. 12634028), 10 mM HEPES (Thermo Fisher Scientific, cat. 15630080), 1X GlutaMAX supplement (Thermo Fisher Scientific, cat. 35050061), 0.1 mg/mL primocin (InvivoGen, cat. ant-pm-2), 10% defined fetal bovine serum, heat inactivated (HyClone Laboratories Inc., cat. SH30070.03HI), 50% L-WRN conditioned media (ATCC, cat. CRL-3276), 1.25 mM N-Acetyl-L-cysteine (Sigma-Aldrich, cat. A9165), 10 mM nicotinamide (Sigma-Aldrich, cat. N0636), 1X B-27 supplement (Thermo Fisher Scientific, cat. 17504044), 1X N-2 supplement (Thermo Fisher Scientific, cat. 17502048), 10 microM Y-27632 dihydrochloride (Tocris Bioscience, cat. 1254), and 50 ng/mL human EGF recombinant protein (Thermo Fisher Scientific, cat. PHG0311). The 485176-168-R4-J1-PDC line was cultured in Panc media, which includes all 6C/Colon 1B media components plus 100 ng/mL human FGF-10 (Thermo Fisher Scientific, cat. 100-26), 500 nM SB-431542 (Selleckchem, cat. S1067), and gastrin (Tocris, cat. 3006).
[…]

[1] = second compound 0.0316 µM, first compound 0.0316 µM
[2] = second compound 0.0316 µM, first compound 0.1 µM
[3] = second compound 0.0316 µM, first compound 0.316 µM
[4] = second compound 0.0316 µM, first compound 1 µM
[5] = second compound 0.0316 µM, first compound 3.16 µM
[6] = second compound 0.0316 µM, first compound 10 µM
[7] = second compound 0.1 µM, first compound 0.0316 µM
[8] = second compound 0.1 µM, first compound 0.1 µM
[9] = second compound 0.1 µM, first compound 0.316 µM
[10] = second compound 0.1 µM, first compound 1 µM
[11] = second compound 0.1 µM, first compound 3.16 µM
[12] = second compound 0.1 µM, first compound 10 µM
[13] = second compound 0.316 µM, first compound 0.0316 µM
[14] = second compound 0.316 µM, first compound 0.1 µM
[15] = second compound 0.316 µM, first compound 0.316 µM
[16] = second compound 0.316 µM, first compound 1 µM
[17] = second compound 0.316 µM, first compound 3.16 µM
[18] = second compound 0.316 µM, first compound 10 µM
[19] = second compound 1 µM, first compound 0.0316 µM
[20] = second compound 1 µM, first compound 0.1 µM
[21] = second compound 1 µM, first compound 0.316 µM
[22] = second compound 1 µM, first compound 1 µM
[23] = second compound 1 µM, first compound 3.16 µM
[24] = second compound 1 µM, first compound 10 µM
[25] = second compound 3.16 µM, first compound 0.0316 µM
[26] = second compound 3.16 µM, first compound 0.1 µM
[27] = second compound 3.16 µM, first compound 0.316 µM
[28] = second compound 3.16 µM, first compound 1 µM
[29] = second compound 3.16 µM, first compound 3.16 µM
[30] = second compound 3.16 µM, first compound 10 µM
[31] = second compound 10 µM, first compound 0.0316 µM
[32] = second compound 10 µM, first compound 0.1 µM
[33] = second compound 10 µM, first compound 0.316 µM
[34] = second compound 10 µM, first compound 1 µM
[35] = second compound 10 µM, first compound 3.16 µM
[36] = second compound 10 µM, first compound 10 µM
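Also: spheroids exposed to the agents for 7 days before readout.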
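For viability, T/C in this document: percent of luminescence signal in DMSO vehicle wells taken as 100% viability.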

C#Cc1c(F)ccc2cc(O)cc(-c3ncc4c(N5CC6CCC(C5)N6)nc(OCC56CCCN5CC(F)C6)nc4c3F)c12 (centres undefined) + Cc1cnc(CNC(=O)c2c(=O)c3ccc(N4CCCN(C)CC4)nc3n3c2sc2ccccc23)cn1
> 10 µM: IC50 (second compound 0.1 µM)
inactive: viability, T/C [1] 92.5% | viability, T/C [2] 81.9% | viability, T/C [3] 76% | viability, T/C [4] 62.7% | viability, T/C [5] 62.6% | viability, T/C [6] 47.5% | viability, T/C [7] 92.6% | viability, T/C [8] 80.1% | viability, T/C [9] 60.1% | viability, T/C [10] 61.2% | viability, T/C [11] 57.2% | viability, T/C [12] 53% | viability, T/C [13] 81.2% | viability, T/C [14] 68.8% | viability, T/C [15] 68.9% | viability, T/C [16] 57.9% | viability, T/C [17] 58.6% | viability, T/C [18] 45.2% | viability, T/C [19] 86.2% | viability, T/C [20] 66.9% | viability, T/C [21] 65.3% | viability, T/C [22] 56.1% | viability, T/C [23] 49.5% | viability, T/C [24] 45.8% | viability, T/C [25] 71.3% | viability, T/C [26] 73.1% | viability, T/C [27] 56.7% | viability, T/C [28] 55.8% | viability, T/C [29] 47.8% | viability, T/C [30] 36.8% | viability, T/C [31] 59.1% | viability, T/C [32] 55.9% | viability, T/C [33] 49.4% | viability, T/C [34] 51.3% | viability, T/C [35] 42.1% | viability, T/C [36] 33.7%
1.91 µM: IC50 (second compound 3.16 µM)
6.48 µM: IC50 (second compound 0.316 µM)
3.09 µM: IC50 (second compound 1 µM)
9.53 µM: IC50 (second compound 0.0316 µM)
0.665 µM: IC50 (second compound 10 µM)

CC(=O)O[C@H]1C(=O)[C@@]2(C)[C@H]([C@H](OC(=O)c3ccccc3)[C@]3(O)C[C@H](OC(=O)[C@H](O)[C@@H](NC(=O)c4ccccc4)c4ccccc4)C(C)=C1C3(C)C)[C@]1(OC(C)=O)CO[C@@H]1C[C@@H]2O + Cc1cnc(CNC(=O)c2c(=O)c3ccc(N4CCCN(C)CC4)nc3n3c2sc2ccccc23)cn1
3.41 µM: IC50 (second compound 0.1 µM)
3.3 µM: IC50 (second compound 1 µM)
5.1 µM: IC50 (second compound 3.16 µM)
2.82 µM: IC50 (second compound 0.0316 µM)
3.38 µM: IC50 (second compound 0.316 µM)
4.09 µM: IC50 (second compound 10 µM)
inactive: viability, T/C [1] 89.9% | viability, T/C [2] 89.1% | viability, T/C [3] 81.3% | viability, T/C [4] 74.2% | viability, T/C [5] 46.1% | viability, T/C [6] 39.6% | viability, T/C [7] 97.5% | viability, T/C [8] 88% | viability, T/C [9] 70.7% | viability, T/C [10] 70% | viability, T/C [11] 46% | viability, T/C [12] 40.5% | viability, T/C [13] 90.3% | viability, T/C [14] 81.2% | viability, T/C [15] 78.2% | viability, T/C [16] 65.8% | viability, T/C [17] 49.3% | viability, T/C [18] 39.2% | viability, T/C [19] 74.7% | viability, T/C [20] 72.8% | viability, T/C [21] 76.6% | viability, T/C [22] 61.8% | viability, T/C [23] 51.8% | viability, T/C [24] 42.9% | viability, T/C [25] 62.2% | viability, T/C [26] 73.1% | viability, T/C [27] 72.5% | viability, T/C [28] 58.9% | viability, T/C [29] 54.7% | viability, T/C [30] 42.4% | viability, T/C [31] 64.8% | viability, T/C [32] 57.1% | viability, T/C [33] 61.1% | viability, T/C [34] 56% | viability, T/C [35] 55.3% | viability, T/C [36] 36.6%
